Results from patent US9975876B2, “2-pyridyloxy-3-ester-4-ether orexin receptor antagonists” (MERCK SHARP & DOHME CORP., priority 2013, dated 2018).

Key:
[1] = biological target: human orexin-2 receptor (Homo sapiens (Human), UniProt O43614); experiment: FLIPR Ca2+ flux assay, orexin-2 receptor antagonism; format: cell-based; settings: CHO cells; agonist 70 pM Ala-6,12 human orexin-A; read-out: hOX2R FLIPR IC50
Procedure: In a typical experiment the OX1 and OX2 receptor antagonistic activity of the compounds of the present invention was determined in accordance with the following experimental method. For intracellular calcium measurements, Chinese hamster ovary (CHO) cells expressing the rat orexin-1 receptor or the human orexin-2 receptor, are grown in Iscove's modified DMEM containing 2 mM L-glutamine, […], 1% hypoxanthine-thymidine supplement, 100 U/ml penicillin, 100 μg/ml streptomycin and 10% heat-inactivated fetal calf serum (FCS). The cells are seeded at 20,000 cells/well into Becton-Dickinson black 384-well clear bottom sterile plates coated with poly-D-lysine. All reagents were from GIBCO-Invitrogen Corp. The seeded plates are incubated overnight at 37° C. and 5% CO2. Ala-6,12 human orexin-A as the agonist is prepared as a 1 mM stock solution in 1% bovine serum albumin (BSA) and diluted in assay buffer (HBSS containing 20 mM HEPES, 0.1% BSA and 2.5 mM probenecid, pH7.4) for use in the assay at a final concentration of 70 pM. Test compounds are prepared as 10 mM stock solution in DMSO, then diluted in 384-well plates, first in DMSO, then assay buffer. On the day of the assay, cells are washed 3 times with 100 μl assay buffer and then incubated for 60 min (37° C., 5% CO2) in 60 μl assay buffer containing 1 μM Fluo-4AM ester, 0.02% pluronic acid, and 1% BSA. The dye loading solution is then aspirated and cells are washed 3 times with 100 μl assay buffer. 30 μl of that same buffer is left in each well. Within the Fluorescent Imaging Plate Reader (FLIPR, Molecular Devices), test compounds are added to the plate in a volume of 25 μl, incubated for 5 min and finally 25 μl of agonist is added. Fluorescence is measured for each well at 1 second intervals for 5 minutes and the height of each fluorescence peak is compared to the height of the fluorescence peak induced by 70 pM Ala-6,12 orexin-A with buffer in place of antagonist. […] The intrinsic orexin receptor antagonist activity of a compound which may be used in the present invention may be determined by these assays.

[2] = biological target: hOX1R (Homo sapiens, UniProt O43613); experiment: FLIPR Ca2+ flux assay, orexin-1 receptor antagonism; format: cell-based; settings: CHO cells; agonist 70 pM Ala-6,12 human orexin-A

Chain of human orexin-2 receptor (O43614 whole entry): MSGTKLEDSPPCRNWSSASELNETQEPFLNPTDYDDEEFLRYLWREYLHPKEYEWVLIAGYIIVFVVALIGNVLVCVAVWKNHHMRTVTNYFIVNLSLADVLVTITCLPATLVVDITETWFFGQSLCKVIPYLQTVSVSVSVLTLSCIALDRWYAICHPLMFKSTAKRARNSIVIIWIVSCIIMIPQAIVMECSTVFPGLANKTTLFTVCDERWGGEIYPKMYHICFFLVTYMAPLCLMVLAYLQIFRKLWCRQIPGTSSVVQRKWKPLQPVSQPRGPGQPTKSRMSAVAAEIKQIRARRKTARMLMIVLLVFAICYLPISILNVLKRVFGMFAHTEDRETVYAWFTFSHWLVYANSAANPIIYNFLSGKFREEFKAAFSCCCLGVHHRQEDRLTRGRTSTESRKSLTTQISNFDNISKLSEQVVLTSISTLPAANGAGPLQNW

COC(=O)c1c(OC)cccc1O[C@@H]1CC[C@@H](C)N(C(=O)c2ccccc2-n2nccn2)C1 [Example 31, Methyl 2-methoxy-6-{[(3R,6R)-6-methyl-1-{[2-(2H-1,2,3-triazol-2-yl)phenyl]carbonyl}piperidin-3-yl]oxy}benzoate]
IC50 [1]: 25 nM
IC50 [2]: > 10000 nM

COC(=O)c1c(OC)cccc1O[C@@H]1CC[C@@H](C)N(C(=O)c2ccsc2-n2nccn2)C1 [Example 32, methyl 2-methoxy-6-{[(3R,6R)-6-methyl-1-{[2-(2H-1,2,3-triazol-2-yl)thiophen-3-yl]carbonyl}piperidin-3-yl]oxy}benzoate]
IC50 [1]: 61 nM
IC50 [2]: > 10000 nM

COC(=O)c1c(OC)cccc1O[C@@H]1CC[C@@H](C)N(C(=O)c2ccccc2-n2ncnn2)C1 [Example 33, methyl 2-methoxy-6-{[(3R,6R)-6-methyl-1-{[2-(2H-tetrazol-2-yl)phenyl]carbonyl}piperidin-3-yl]oxy}bcnzoate]
IC50 [1]: 202 nM
IC50 [2]: > 10000 nM

COC(=O)c1c(OC)cccc1O[C@@H]1CC[C@@H](C)N(C(=O)c2ccsc2-c2ncccn2)C1 [Example 34, methyl 2-methoxy-6-({(3R,6R)-6-methyl-1-[(2-pyrimidin-2-ylthiophen-3-yl)carbonyl]piperidin-3-yl}oxy)benzoate]
IC50 [1]: 42 nM
IC50 [2]: > 10000 nM

COC(=O)c1c(OC)cccc1O[C@@H]1CC[C@@H](C)N(C(=O)c2ccccc2-c2ncccn2)C1 [Example 35, methyl 2-methoxy-6-({(3R,6R)-6-methyl-1-[(2-pyrimidin-2-ylphenyl)carbonyl]piperidin-3-yl}oxy)benzoate]
IC50 [1]: 35 nM
IC50 [2]: > 10000 nM
